The results in this text go back to paper PMC4684214, “Timberol® Inhibits TAAR5-Mediated Responses to Trimethylamine and Influences the Olfactory Threshold in Humans” (PLoS ONE, 2015).

For this experiment, the target named is T1, hOR51E1 (Homo sapiens, UniProt Q8TCB6).
T1 construct: gene OR51E1; recombinant receptor plasmid transfected in HANA3A cells; with G-alpha-olf, RTP1S and M3 muscarinic receptor
T1 sequence (Q8TCB6 1-318): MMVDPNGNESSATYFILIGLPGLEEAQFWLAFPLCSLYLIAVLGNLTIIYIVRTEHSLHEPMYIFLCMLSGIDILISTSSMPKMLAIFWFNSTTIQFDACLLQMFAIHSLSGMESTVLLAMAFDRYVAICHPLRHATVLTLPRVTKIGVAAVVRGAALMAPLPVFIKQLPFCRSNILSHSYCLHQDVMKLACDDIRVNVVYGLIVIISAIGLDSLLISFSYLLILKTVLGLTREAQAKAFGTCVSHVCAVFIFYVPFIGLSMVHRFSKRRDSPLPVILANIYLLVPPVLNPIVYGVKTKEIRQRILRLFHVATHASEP
Briefly: Cre-luciferase reporter gene assay (cAMP). It counts as cell-based. The following applies: agonist; M3 muscarinic receptor co-expressed; 37°C, 4 h. The text has this:
Cre-luciferase reporter gene assay (cAMP) on hOR51E1 | (B) nonanoic acid and hOR51E1
On the technique in general: Reporter assays use an easily measured gene product as a stand-in for the process of interest.

The term EC50 denotes the concentration needed to bring the measured effect to its halfway point.

In turn, `CCCCCCCCC(=O)O` [nonanoic acid] had a concentration for a half-maximal effect (EC50) of 103 ± 23.1 µM.
